From patent US9303016B2, “Derivatives of aza adamantane and uses thereof” (CONNEXIOS LIFE SCIENCES PVT. LTD., priority 2011, dated 2016)

Target: T1, human full length HSD11β1 (Homo sapiens, UniProt P28845)
T1 construct: transient expression of human full length HSD11β1 expression vector; host or cells: CHO cells, transient transfection
Test: In Vitro HSD11β1 Inhibition Assay
Assay type: cell-based
Settings: CHO cells transiently expressing human HSD11β1; 200 nM cortisone+500 uM NADPH overnight; cortisone to cortisol by LC/MS-MS; read-out: 11βHSD1 (IC50)
Procedure: In Vitro HSD11β1 Inhibition Assay:
CHO cells were maintained in Dulbecco's modified Eagle's medium/nutrient mixture F-12 containing 5% fetal bovine serum (v/v) and 2 mM glutamine. Cells were cultured at 37° C. with 5% CO2. For transient expression of human full length HSD11β1 expression vector (OriGene Technologies), cells were seeded at a density of 2×10^5 cells/well in a 6-well plate. Transfection was done using Turbofectin8 reagent (OriGene Technologies), according to the protocol provided with the reagent. After 24 hours post-transfection, cells were trypsinized and pooled together before they were re-seeding to 96-well plate at a density of 40000 cells/well. 24 hours after re-seeding, cells were incubated with 200 nM cortisone+500 uM NADPH (or along with small molecule inhibitors) overnight. The enzymatic activity or inhibition of enzyme activity was measured by estimating the conversion of cortisone to cortisol by LC/MS-MS method. The IC50 in nM was calculated from a 8 point log scale of concentration versus inhibition.

T1 sequence (P28845 whole entry): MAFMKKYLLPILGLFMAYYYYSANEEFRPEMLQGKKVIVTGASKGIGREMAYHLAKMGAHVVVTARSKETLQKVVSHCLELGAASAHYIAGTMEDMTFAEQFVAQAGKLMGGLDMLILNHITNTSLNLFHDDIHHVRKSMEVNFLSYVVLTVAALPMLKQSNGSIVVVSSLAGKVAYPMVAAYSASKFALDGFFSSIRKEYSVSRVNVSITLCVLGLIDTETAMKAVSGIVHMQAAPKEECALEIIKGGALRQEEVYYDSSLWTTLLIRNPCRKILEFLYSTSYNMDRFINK

Structure (SMILES) | IC50
COc1ccc2[nH]cc(C(C)CC(=O)N3C4CC5CC3CC(O)(C5)C4)c2c1 (centres unmarked) [Compound 109, 1-(5-hydroxy-2-azatricyclo[3.3.1.1^3,7]dec-2-yl)-3-(5-methoxy-1H-indol-3-yl)butan-1-one] | > 250 nM
Cc1cccc2[nH]cc(C(C)CC(=O)N3C4CC5CC3CC(c3nnn[nH]3)(C5)C4)c12 (centres unmarked) [Compound 77, 3-(4-methyl-1H-indol-3-yl)-1-[5-(1H-tetrazol-5-yl)-2-azatricyclo[3.3.1.1^3,7]dec-2-yl]butan-1-one] | > 250 nM
CC(CC(=O)N1C2CC3CC1CC(O)(C3)C2)c1c[nH]c2ncc(Cl)c(C3CC3)c12 (single isomer, unassigned) [Compound 200, 3-(5-chloro-4-cyclopropyl-1H-pyrrolo[2,3-b]pyridin-3-yl)-1-(5-hydroxy-2-azatricyclo[3.3.1.1^3,7]dec-2-yl)butan-1-one] | > 250 nM
O=C(CC(c1ccccc1)n1nnc2ccccc21)N1C2CC3CC1CC(O)(C3)C2 (centres unmarked) [Compound 121, 3-(1H-benzotriazol-1-yl)-1-(5-hydroxy-2-azatricyclo[3.3.1.1^3,7]dec-2-yl)-3-phenylpropan-1-one] | > 250 nM
CC(CC(=O)N1C2CC3CC1CC(O)(C3)C2)c1nc2ccc(Cl)cc2s1 (single isomer, unassigned) [Compound 195, 3-(6-chloro-1,3-benzothiazol-2-yl)-1-(5-hydroxy-2-azatricyclo[3.3.1.1^3,7]dec-2-yl)butan-1-one] | > 250 nM
O=C(CCc1c[nH]c2cccc(F)c12)N1C2CC3CC1CC(O)(C3)C2 [Example 4, 3-(4-fluoro-1H-indol-3-yl)-1-(5-hydroxy-2-azatricyclo[3.3.1.1^3,7]dec-2-yl)propan-1-one] | > 250 nM
CC(CC(=O)N1C2CC3CC1CC(C#N)(C3)C2)c1c[nH]c2ncc(Cl)cc12 (centres unmarked) [Compound 137, 2-[3-(6-chloro-1H-pyrrolo[2,3-b]pyridin-3-yl)butanoyl]-2-azatricyclo[3.3.1.1^3,7′]decane-5-carbonitrile] | > 250 nM
CC(CC(=O)N1C2CC3CC1CC(O)(C3)C2)c1c[nH]c2ccc(Cl)cc12 (centres unmarked) [Example 68, 3-(5-chloro-1H-indol-3-yl)-1-(5-hydroxy-2-azatricyclo[3.3.1.1^3,7]dec-2-yl)butan-1-one] | > 250 nM
CC(CC(=O)N1C2CC3CC1CC(O)(C3)C2)c1c[nH]c2cc(Cl)c(C3CC3)cc12 (centres unmarked) [Compound 138, 3-(6-chloro-5-cyclopropyl-1H-indol-3-yl)-1-(5-hydroxy-2-azatricyclo[3.3.1.1^3,7]dec-2-yl)butan-1-one] | 100 to 150 nM
Cc1ccc2c(c1Cl)C(C(C)CC(=O)N1C3CC4CC1CC(O)(C4)C3)C(=O)N2 (centres unmarked) [Compound 211, 4-chloro-3-[4-(5-hydroxy-2-azatricyclo[3.3.1.1^3,7]dec-2-yl)-4-oxobutan-2-yl]-5-methyl-1,3-dihydro-2H-indol-2-one] | 150 to 200 nM
O=C(O)C1C2CC3CC(C2)N(C(=O)CC(c2cccs2)c2c[nH]c4cccc(F)c24)C1C3 (centres unmarked) [Compound 122, 2-[3-(4-fluoro-1H-indol-3-yl)-3-(thiophen-2-yl)propanoyl]-2-azatricyclo[3.3.1.1^3,7]decane-4-carboxylic acid] | > 250 nM
CC(CC(=O)N1C2CC3CC1CC(C(C)C(=O)O)(C3)C2)c1c[nH]c2cccc(C3CC3)c12 (centres unmarked) [Compound 167, 2-{2-[3-(4-cyclopropyl-1H-indol-3-yl)butanoyl]-2-azatricyclo[3.3.1.1^3,7]dec-5-yl}propanoic acid] | 200 to 250 nM
Cn1cc(C(C)(C)CC(=O)N2C3CC4CC2CC(O)(C4)C3)c2ccccc21 [Example 10, 1-(5-hydroxy-2-azatricyclo[3.3.1.1^3,7]dec-2-yl)-3-methyl-3-(1-methyl-1H-indol-3-yl)butan-1-one] | > 250 nM
COc1ccc2[nH]cc(C(C)CC(=O)N3C4CC5CC3CC(C#N)(C5)C4)c2c1 (centres unmarked) [Compound 230, 2-(3-(5-methoxy-1H-indol-3-yl)butanoyl)-2-azaadamantane-5-carbonitrile] | > 250 nM
